What was measured:
human mAChR M1 [1] = molecular target: T1, human mAChR M1 (Homo sapiens, UniProt P11229); assay: mAChR M1 cell-based functional assay (calcium mobilization), PAM mode: increase in the EC20 acetylcholine response
T1 sequence (P11229 1-460): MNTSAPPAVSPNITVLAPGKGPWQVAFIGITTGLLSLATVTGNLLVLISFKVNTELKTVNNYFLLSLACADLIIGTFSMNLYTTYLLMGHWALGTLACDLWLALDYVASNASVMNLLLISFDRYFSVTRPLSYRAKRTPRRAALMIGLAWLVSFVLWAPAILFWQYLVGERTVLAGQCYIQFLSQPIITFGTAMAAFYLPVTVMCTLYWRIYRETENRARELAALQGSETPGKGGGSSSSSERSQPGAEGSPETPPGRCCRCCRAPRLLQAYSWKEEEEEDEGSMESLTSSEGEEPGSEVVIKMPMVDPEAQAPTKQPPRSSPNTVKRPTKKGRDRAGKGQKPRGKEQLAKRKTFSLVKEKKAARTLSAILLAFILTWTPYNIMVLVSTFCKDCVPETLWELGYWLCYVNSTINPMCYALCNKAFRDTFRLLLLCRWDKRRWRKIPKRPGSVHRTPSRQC
Summary of the method: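 PAM readout is the concentration-dependent rise in the EC20 acetylcholine calcium signal, fitted to a four-parameter logistic (EC50, Emax). Compounds were preincubated from 4 s before ACh at 144 s (EC20) and 230 s (EC80). hM1-expressing CHO-K1 cells loaded with Fluo-4, FDSS ratio read.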

human mAChR M1 [2] = molecular target: T1, human mAChR M1; assay: mAChR M1 cell-based functional assay (calcium mobilization), agonist mode: compound alone, Emax relative to acetylcholine maximum; conditions: for Agonist Activity Human M1 EC50 / EC50: human mAChR M1; for Emax: relative to the maximum for acetylcholine
Summary of the method: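 Agonist activity is the concentration-dependent rise in intracellular calcium (Fluo-4, 1 Hz read) after compound addition, measured before any acetylcholine was added, in stable hM1 CHO-K1 cells. Curves were 11-point, 1:3 dilutions fitted by four-parameter logistic. Emax is given as a fraction of maximal acetylcholine response.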

EC50 (human mAChR M1 [1]) [nM] | Emax (human mAChR M1 [1]) [%] | Agonist Activity Human M1 EC50 (human mAChR M1 [2]) | Emax (human mAChR M1 [2]) [%] | EC50 (human mAChR M1 [2]) [nM] | Structure (SMILES)
1440 | 71 | Inactive | 4 | – | [2H]C1([2H])c2ncccc2C(=O)N1Cc1ccc(-c2ccc(OC(F)(F)F)c3nn(C)cc23)cc1F [Compound 110, 6-(2-fluoro-4-(2-methyl-7-(trifluoromethoxy)-2H-indazol-4-yl)benzyl)-6,7-dihydro-5H-pyrrolo[3,4-b]pyridin-5-one-7,7-d2]
639 | 62 | Inactive | 4 | – | [2H]C1([2H])c2ncccc2C(=O)N1Cc1c(F)cc(-c2ccc3nn(C)cc3c2)cc1F [Compound 8, 6-(2,6-difluoro-4-(2-methyl-2H-indazol-5-yl)benzyl)-6,7-dihydro-5H-pyrrolo[3,4-b]pyridin-5-one-7,7-d^2]
806 | 73 | Inactive | 7 | – | [2H]C1([2H])c2ncccc2C(=O)N1Cc1c(F)cc(-c2cccc3nn(C)cc23)cc1OC [Compound 231, 6-(2-fluoro-6-methoxy-4-(2-methyl-2H-indazol-4-yl)benzyl)-6,7-dihydro-5H-pyrrolo[3,4-b]pyridin-5-one-7,7-d2]
> 10000 | 20 | Inactive | 14 | – | [2H]C1([2H])c2ncccc2C(=O)N1Cc1c(F)cc(-c2cc(F)c(Cl)c3c2cnn3C([2H])([2H])[2H])cc1F [Compound 249, 6-(4-(7-chloro-6-fluoro-1-(methyl-d3)-1H-indazol-4-yl)-2,6-difluorobenzyl)-6,7-dihydro-5H-pyrrolo[3,4-b]pyridin-5-one-7,7-d2]
> 10000 | 29 | Inactive | 2 | – | [2H]C1([2H])c2ncccc2C(=O)N1Cc1c(F)cc(-c2cc(F)cc3c2cnn3C([2H])([2H])[2H])cc1F [Compound 247, 6-(2,6-difluoro-4-(6-fluoro-1-(methyl-d3)-1H-indazol-4-yl)benzyl)-6,7-dihydro-5H-pyrrolo[3,4-b]pyridin-5-one-7,7-d2]
694 | 76 | – | 22 | ≥ 10000 | [2H]C1([2H])c2ncccc2C(=O)N1Cc1ccc(-c2ccc(O[C@@H]3CCOC3)c3nn(C)cc23)cc1F [Compound 151, (R)-6-(2-fluoro-4-(2-methyl-7-((tetrahydrofuran-3-yl)oxy)-2H-indazol-4-yl)benzyl)-6,7-dihydro-5H-pyrrolo[3,4-b]pyridin-5-one-7,7-d2]
287 | 72 | – | 21 | 9430 | [2H]C1([2H])c2ncccc2C(=O)N1Cc1ccc(-c2ccc(OCCOC)c3nn(C)cc23)cc1F [Compound 116, 6-(2-fluoro-4-(7-(2-methoxyethoxy)-2-methyl-2H-indazol-4-yl)benzyl)-6,7-dihydro-5H-pyrrolo[3,4-b]pyridin-5-one-7,7-d2]
256 | 74 | – | 53 | 7920 | [2H]C1([2H])c2ncccc2C(=O)N1Cc1c(F)cc(-c2ccc(O[C@@H]3CCOC3)c3nn(C)cc23)cc1F [Compound 137, (R)-6-(2,6-difluoro-4-(2-methyl-7-((tetrahydrofuran-3-yl)oxy)-2H-indazol-4-yl)benzyl)-6,7-dihydro-5H-pyrrolo[3,4-b]pyridin-5-one-7,7-d2]
722 | 74 | Inactive | 6 | – | [2H]C1([2H])c2ncccc2C(=O)N1Cc1c(F)cc(-c2ccc(OCSC)c3nn(C)cc23)cc1F [Compound 185, 6-(2,6-difluoro-4-(2-methyl-7-((methylthio)methoxy)-2H-indazol-4-yl)benzyl)-6,7-dihydro-5H-pyrrolo[3,4-b]pyridin-5-one-7,7-d2]
980 | 57 | – | 34 | 7700 | [2H]C1([2H])c2ncccc2C(=O)N1Cc1c(F)cc(-c2ccnc3nn(C)cc23)cc1F [Compound 2, 6-(2,6-difluoro-4-(2-methyl-2H-pyrazolo[3,4-b]pyridin-4-yl)benzyl)-6,7-dihydro-5H-pyrrolo[3,4-b]pyridin-5-one-7,7-d2]
512 | 87 | Inactive | 5 | – | [2H]C1([2H])c2ncccc2C(=O)N1Cc1c(F)cc(-c2ccc(OC3CN(CCCC)C3)c3nn(C)cc23)cc1F [Compound 184, 6-(4-(7-((1-butylazetidin-3-yl)oxy)-2-methyl-2H-indazol-4-yl)-2,6-difluorobenzyl)-6,7-dihydro-5H-pyrrolo[3,4-b]pyridin-5-one-7,7-d2]
347 | 79 | – | 30 | 5600 | [2H]C1([2H])c2ncccc2C(=O)N1Cc1c(C)cc(-c2ccc(F)c3nn(C)cc23)cc1F [Compound 198, 6-(2-fluoro-4-(7-fluoro-2-methyl-2H-indazol-4-yl)-6-methylbenzyl)-6,7-dihydro-5H-pyrrolo[3,4-b]pyridin-5-one-7,7-d2]
381 | 74 | Inactive | 8 | – | [2H]C1([2H])c2ncccc2C(=O)N1Cc1ccc(-c2ccc(OCC)c3nn(C)cc23)cc1F [Compound 108, 6-(4-(7-ethoxy-2-methyl-2H-indazol-4-yl)-2-fluorobenzyl)-6,7-dihydro-5H-pyrrolo[3,4-b]pyridin-5-one-7,7-d2]
717 | 77 | – | 26 | ≥ 10000 | [2H]C1([2H])c2ncccc2C(=O)N1Cc1c(F)cc(-c2ccc(OCCOC(C)C)c3nn(C)cc23)cc1F [Compound 149, 6-(2,6-difluoro-4-(7-(2-isopropoxyethoxy)-2-methyl-2H-indazol-4-yl)benzyl)-6,7-dihydro-5H-pyrrolo[3,4-b]pyridin-5-one-7,7-d2]
> 10000 | 41 | Inactive | 3 | – | [2H]C1([2H])c2ncccc2C(=O)N1Cc1ccc(-c2cccc3ccnn23)cc1 [Compound 241, 6-(4-(pyrazolo[1,5-a]pyridin-7-yl)benzyl)-6,7-dihydro-5H-pyrrolo[3,4-b]pyridin-5-one-7,7-d2]
1130 | 76 | Inactive | 7 | – | [2H]C1([2H])c2ncccc2C(=O)N1Cc1ccc(-c2cccc3nn(C)cc23)cc1F [Compound 23, 6-(2-fluoro-4-(2-methyl-2H-indazol-4-yl)benzyl)-6,7-dihydro-5H-pyrrolo[3,4-b]pyridin-5-one-7,7-d2]
681 | 77 | Inactive | 9 | – | [2H]C1([2H])c2ncccc2C(=O)N1Cc1ccc(-c2cccc3nn(C([2H])([2H])[2H])cc23)cc1C [Compound 46, 6-(2-methyl-4-(2-(methyl-d^3)-2H-indazol-4-yl)benzyl)-6,7-dihydro-5H-pyrrolo[3,4-b]pyridin-5-one-7,7-d2]
2000 | 82 | – | 3 | > 10000 | [2H]C1([2H])c2ncccc2C(=O)N1Cc1ccc(-c2cnc3nn(C)cc3c2)cc1C [Compound 34, 6-(2-methyl-4-(2-methyl-2H-pyrazolo[3,4-b]pyridin-5-yl)benzyl)-6,7-dihydro-5H-pyrrolo[3,4-b]pyridin-5-one-7,7-d2]

Structure (SMILES) | EC50 (human mAChR M1 [1]) [nM] | Emax (human mAChR M1 [1]) [%] | Agonist Activity Human M1 EC50 (human mAChR M1 [2]) | Emax (human mAChR M1 [2]) [%] | EC50 (human mAChR M1 [2]) [nM]
[2H]C1([2H])c2ncccc2C(=O)N1Cc1c(F)cc(-c2ccc(C)c3nn(C)cc23)cc1OCC(C)C [Compound 213, 6-(4-(2,7-dimethyl-2H-indazol-4-yl)-2-fluoro-6-isobutoxybenzyl)-6,7-dihydro-5H-pyrrolo[3,4-b]pyridin-5-one-7,7-d2] | 1520 | 81 | Inactive | 3 | –

Reference: US20240228489A1, “POSITIVE ALLOSTERIC MODULATORS OF THE MUSCARINIC ACETYLCHOLINE RECEPTOR M1” (Vanderbilt University, priority 2021, published 2024)
